Laboratory results from patent US20250295790A1, “LECTIN-TARGETING CONJUGATES” (Helmholtz-Zentrum für Infektionsforschung GmbH, priority 2021, published 2025).

Assays:
[1] = target: T1, LecA (Pseudomonas aeruginosa, UniProt Q05097); assay: Competitive binding assay based on fluorescence polarization with LecA; conditions: target LecA; read-out: IC50 ± s.d.
T1 construct: made in house
Method: LecA (according to Joachim et al.): A serial dilution of the test compounds was prepared in TBS/Ca (8.0 g/L NaCl, 2.4 g/L Tris, 0.19 g/L KCl, 0.15 g/L CaCl2·2 H2O), with 30% DMSO as co-solvent. […] The measured intensities were reduced by the values of only LecA in TBS/Ca and fluorescence polarization was calculated. The data was analysed with the MARS Data Analysis Software (BMG Labtech GmbH, Germany) and fitted according to the four-parameter variable slope model. Bottom and top plateaus were fixed according to the control compounds in each assay ((p-nitrophenyl)-p-D-galactoside) and the data was re-analysed with these values fixed. A minimum of three independent measurements on three plates was performed for each inhibitor.
Averages and standard deviations were calculated from at least three independent experiments.

[2] = target: LecB PAO1 (Pseudomonas aeruginosa, UniProt Q9HYN5); assay type: binding; conditions: target LecB PAO1
Chain of LecB PAO1 (Q9HYN5 entry or part of it): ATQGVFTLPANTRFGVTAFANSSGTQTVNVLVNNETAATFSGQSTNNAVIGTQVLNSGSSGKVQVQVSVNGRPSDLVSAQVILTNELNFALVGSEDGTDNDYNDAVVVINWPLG
Method: LecB (LecB PAO1 according to Hauck et al. and LecB PA14 according to Sommer et al.): A serial dilution of the test compounds was prepared in TBS/Ca, with 20% DMSO as cosolvent. […] Fluorescence was measured and analysed as for LecA. Bottom and top plateaus were fixed according to the control compound in each assay (1-fucose) and the data was re-analysed with these values fixed. A minimum of three independent measurements on three plates was performed for each inhibitor.

[3] = system: A549 cells; assay: Cytotoxicity assay (MTT); assay type: cell-based, human; conditions: 24 h
Source text: Then supernatant was transferred to a 96-well-plate. […] The experiment was repeated at least three times. The error bars indicate the standard deviation.

[4] = assay type: in vitro ADME
Method: Each compound dissolved in DMSO was added to mouse plasma (pH 7.4, 37° C.) or to human plasma (pH 7.4, 37° C.) to yield a final concentration of 1 μM. In addition, procaine and procainamide (dissolved in DMSO) were added to mouse plasma or to human plasma (pH 7.4, 37° C.) to yield a final concentration of 1 μM. Procaine served as positive control as it is unstable in mouse plasma. Procainamide served as negative control as it is stable in mouse plasma. The samples were incubated for 0 min, 15 min, 30 min, 60 min, 90 min, 120 min and 240 min at 37° C. At each time point, 10 μl of the respective sample was extracted with 90 l acetonitrile and 1 μl of caffeine as internal standard for 5 min at 2000 rpm on a MixMate® vortex mixer (Eppendorf). Acetonitrile and caffeine were dispensed using a Mantis Formulatrix®. The samples were centrifuged for 20 min at 2270 ref at 4° C. and the supernatants were transferred to 96-well Greiner V-bottom plates. Samples were analysed using HPLC-MS/MS analysis as described in the respective section. Peak areas of each compound and of the internal standard were analysed using the MultiQuant 3.0 software (AB Sciex). […]
Cell samples as well as plasma stability, plasma protein binding and metabolic stability samples were analysed using an Agilent 1290 Infinity II coupled to an AB Sciex 6500plus mass spec-trometer. […]

[5] = target: LecB PA14 (Pseudomonas aeruginosa, UniProt A0A0H2ZE85); assay type: binding; conditions: target LecB PA14
Chain of LecB PA14 (A0A0H2ZE85 entry or part of it): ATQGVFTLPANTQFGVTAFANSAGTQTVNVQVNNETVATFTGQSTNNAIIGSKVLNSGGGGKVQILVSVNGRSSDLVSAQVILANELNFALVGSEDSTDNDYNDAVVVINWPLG
Method: LecB (LecB PAO1 according to Hauck et al. and LecB PA14 according to Sommer et al.): A serial dilution of the test compounds was prepared in TBS/Ca, with 20% DMSO as cosolvent. A concentrated solution of LecB PAO1 or PA14 was diluted in TBS/Ca together with the fluorescent reporter ligand (N-(fluorescein-5-yl)-N′-(α-l-fucopyranosyl ethylen)-thiocarbamide) to yield concentrations of 300 nM and 20 nM, respectively. 10 μL of this mix was added to 10 μL serial dilutions of the test compounds in a black 384-well microtiter plates (Greiner Bio-One, Germany, cat. no. 781900) in triplicates. After centrifugation (2680 ref, 1 min, room temperature), the reactions were incubated for 4-8 h at room temperature in a humidity chamber. Fluorescence was measured and analysed as for LecA. Bottom and top plateaus were fixed according to the control compound in each assay (1-fucose) and the data was re-analysed with these values fixed. A minimum of three independent measurements on three plates was performed for each inhibitor.

[6] = calculated as Ki from IC50, read-out: Ki ± s.d.

T1 sequence (Q05097 whole entry): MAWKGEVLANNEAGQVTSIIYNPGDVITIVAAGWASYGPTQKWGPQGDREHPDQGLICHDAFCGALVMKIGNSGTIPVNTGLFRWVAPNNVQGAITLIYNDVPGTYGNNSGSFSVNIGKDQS

CC(C)C[C@H](NC(=O)CNC(=O)[C@H](C)NC(=O)c1ccc(S[C@@H]2O[C@H](CO)[C@H](O)[C@H](O)[C@H]2O)cc1)C(=O)N[C@@H](C)C(=O)N[C@H]1CCN(c2cc3c(cc2F)c(=O)c(C(=O)O)cn3C2CC2)C1 [Compound 36]
IC50 [1]: ~30000 nM

CC(C)CC(NC(=O)CNC(=O)C(C)NC(=O)c1ccc(S(=O)(=O)NCC2OC(C)C(O)C(O)C2O)cc1)C(=O)NC(C)C(=O)NC1CCN(c2cc3c(cc2F)c(=O)c(C(=O)O)cn3C2CC2)C1 (stereo not drawn) [Compound 37]
IC50 [2]: 3590 ± 1920 nM
IC50 ± s.d. [2]: one-digit micromolar range
Ki [2, 6]: 1430 ± 900 nM
IC50 [3]: > 50000 nM
plasma stability, t1/2 human [4]: 2.25 h
plasma stability, t1/2 mouse [4]: 1.23 h
IC50 [5]: 750 ± 160 nM
Ki [5, 6]: 270 ± 60 nM
